assay: log P determination by HPLC (EEC Directive 79/831 Annex V.A8, gradient method); format: physicochemical; conditions: not given

| Structure (SMILES) | Physical data (logP) | Physical data: log P | Physical data: logP |
| --- | --- | --- | --- |
| O=C(/C=C/c1c(-c2ccccc2Cl)nc2sc(-c3ccc(C(F)(F)F)cc3)nn12)NC1CCC(C(F)(F)F)CC1 (centres unmarked) [Example 0843] | – | – | 4.86 |
| CC(NC(=O)/C=C/c1c(-c2ccccc2Cl)nc2sc(-c3ccc(C(F)(F)F)cc3)nn12)C(C)(C)C (centres unmarked) [Example 0848] | – | – | 4.83 |
| Cc1csc2nc(-c3ccccc3Cl)c(/C=C/C(=O)NC(C)C)n12 [Example 0890] | – | – | 2.09 |
| CC(C)CNC(=O)/C=C/c1c(-c2ccccc2Cl)nc2sc(-c3ccc(C(F)(F)F)cc3)nn12 [Example 0838] | – | – | 4.37 |
| CCC(NC(=O)/C=C/c1c(-c2ccc(OC)c(OC)c2)nc2sc(C(F)(F)F)nn12)C1CCCCC1 (centres unmarked) [Example 0691] | – | – | 4.46 |
| O=C(/C=C/c1c(-c2ccccc2F)nc2sc(C(F)(F)F)nn12)N1CCOCC1 [Example 0507] | – | 2.7 | – |
| CCC(NC(=O)C=Cc1c(-c2cccc(C(F)(F)F)c2)nc2sc(C(F)(F)F)nn12)c1ccccc1 (centres unmarked) [Example 0403] | – | 4.72 | – |
| COCc1nn2c(/C=C/C(=O)NCC(F)(F)C(F)(F)F)c(-c3ccccc3Cl)nc2s1 [Example 0836] | – | – | 3.17 |
| COCc1nn2c(C=CC(=O)NC(C(C)C)C(F)(F)F)c(-c3ccccc3Cl)nc2s1 (centres unmarked) [Example 0818] | – | – | 3.54 |
| Cc1cn2c(/C=C/C(=O)NC3CCC3)c(-c3ccccc3Cl)nc2s1 [Example 0874] | – | – | 2.48 |
| O=Cc1c(-c2ccccc2Cl)nc2scnn12 [IVA110] | 1.79 | – | – |
| Cc1csc2nc(-c3ccccc3Cl)c(/C=C/C(=O)Nc3ccc(Cl)cc3)n12 [Example 0899] | – | – | 3.24 |
| O=C(O)/C=C/c1c(-c2cncc(Br)c2)nc2sc(C(F)(F)F)nn12 [VA117] | 2.54 | – | – |
| CC(C)CCNC(=O)/C=C/c1c(-c2ccccc2Cl)nc2sc(C(C)(C)C)nn12 [Example 0798] | – | – | 4.11 |
| O=Cc1c(-c2ccccc2Cl)nc2sc(C(F)(F)C(F)(F)F)nn12 [IVA111] | 3.47 | – | – |
| O=C(/C=C/c1c(-c2ccccc2Cl)nc2sc(-c3ccc(C(F)(F)F)cc3)nn12)NC1CCC(Cl)CC1 (centres unmarked) [Example 0855] | – | – | 5.27 |
| CC(C)C(NC(=O)C=Cc1c(-c2sccc2Cl)nc2sc(C(F)(F)F)nn12)C(F)(F)F (centres unmarked) [Example 0923] | – | – | 4.23 |
| O=C(/C=C/c1c(-c2cccc(C(F)(F)F)c2)nc2sc(C(F)(F)F)nn12)NC1CCC1 [Example 0376] | – | 4.03 | – |
| O=C(/C=C/c1c(-c2ccccc2F)nc2sc(C(F)(F)F)nn12)N1CCCCC1 [Example 0506] | – | 3.59 | – |
| O=C(O)/C=C/c1c(-c2ccccc2Cl)nc2sc(C(F)(F)C(F)(F)F)nn12 [VA113] | 3.19 | – | – |
| Cc1cn2c(/C=C/C(=O)NC3CCCC3)c(-c3ccccc3Cl)nc2s1 [Example 0875] | – | – | 2.7 |

| Structure (SMILES) | Physical data (logP) | Physical data: log P | Physical data: logP |
| --- | --- | --- | --- |
| COCc1nn2c(/C=C/C(=O)NCC(F)(F)C(F)(F)C(F)(F)F)c(-c3ccccc3Cl)nc2s1 [Example 0837] | – | – | 3.59 |
| CC(C)(C)CNC(=O)/C=C/c1c(-c2ccccc2Cl)nc2sc(-c3ccc(C(F)(F)F)cc3)nn12 [Example 0841] | – | – | 4.68 |
| CC(C)(C)c1nn2c(/C=C/C(=O)NC3CCC(C(F)(F)F)CC3)c(-c3ccccc3Cl)nc2s1 (centres unmarked) [Example 0799] | – | – | 4.32 |
| CCC(C)NC(=O)/C=C/c1c(-c2ccccc2Cl)nc2sc(COC)nn12 (centres unmarked) [Example 0825] | – | – | 2.71 |
| CCC(NC(=O)C=Cc1c(-c2cccc(C(F)(F)F)c2)nc2sc(C(F)(F)F)nn12)C1CCCCC1 (centres unmarked) [Example 0409] | – | 5.48 | – |
| O=C(/C=C/c1c(-c2ccc(Cl)cc2Cl)nc2sc(C(F)(F)F)nn12)N1CCOCC1 [Example 0575] | – | 3.34 | – |
| O=C(/C=C/c1c(-c2cccc(C(F)(F)F)c2)nc2sc(C(F)(F)F)nn12)NC1CC1 [Example 0375] | – | 3.59 | – |
| O=C(O)/C=C/c1c(-c2nccs2)nc2sc(C(F)(F)C(F)(F)F)nn12 [VA116] | 2.97 | – | – |
| O=C(C=Cc1c(-c2ccccc2Cl)nc2sc(C(F)(F)F)nn12)NC(c1ccc(F)cc1)C(F)(F)F (centres unmarked) [Example 0918] | – | – | 4.34 |
| O=Cc1c(-c2nccs2)nc2sc(C(F)(F)F)nn12 [IVA113] | 2.43 | – | – |
| CC(C)(C)c1nn2c(/C=C/C(=O)NC3CCCC3)c(-c3ccccc3Cl)nc2s1 [Example 0809] | – | – | 4.12 |
| O=C(C=Cc1c(-c2ccc(F)cc2Cl)nc2sc(C(F)(F)F)nn12)NC(CC(F)(F)F)c1ccccc1 (centres unmarked) [Example 0609] | – | 4.25 | – |
| CC(C)(C)c1nn2c(/C=C/C(=O)NC3CC3)c(-c3ccccc3Cl)nc2s1 [Example 0807] | – | – | 3.07 |
| CCC(C)NC(=O)/C=C/c1c(-c2ccccc2Cl)nc2sc(C(C)(C)C)nn12 (centres unmarked) [Example 0803] | – | – | 3.67 |
| CC(C)C(NC(=O)C=Cc1c(-c2ccc(F)cc2Cl)nc2sc(C(F)(F)C(F)(F)F)nn12)C(F)(F)F (centres unmarked) [Example 0975] | – | – | 4.76 |
| O=C(O)/C=C/c1c(-c2nccs2)nc2sc(C(F)(F)F)nn12 [VA115] | 2.48 | – | – |
| COc1ccc(-c2nc3sc(C(F)(F)F)nn3c2/C=C/C(=O)NC(C)COc2ccccc2)cc1OC (centres unmarked) [Example 0689] | – | – | 3.72 |
| Cc1cn2c(/C=C/C(=O)Nc3ccc(OC(F)(F)F)cc3)c(-c3ccccc3Cl)nc2s1 [Example 0878] | – | – | 3.9 |
| Cc1ccccc1-c1nc2sc(C(F)(F)F)nn2c1/C=C/C(=O)NC1CCCCC1 [Example 0236] | – | 4.03 | – |
| CC(C)(C)c1nn2c(/C=C/C(=O)NCC(F)(F)C(F)(F)C(F)(F)F)c(-c3ccccc3Cl)nc2s1 [Example 0815] | – | – | 4.48 |

More lines, now with the values ahead:

| Physical data (logP) | Physical data: log P | Physical data: logP | Structure (SMILES) |
| --- | --- | --- | --- |
| 2.77 | – | – | Cc1ccccc1-c1nc2sc(C(F)(F)F)nn2c1/C=C/C(=O)O [VA-5] |
| – | 4.13 | – | CC(COc1ccccc1)NC(=O)/C=C/c1c(-c2ccc(F)cc2)nc2sc(C(F)(F)F)nn12 (centres unmarked) [Example 0336] |
| – | 4.18 | – | CCC(C)NC(=O)/C=C/c1c(-c2cccc(C(F)(F)F)c2)nc2sc(C(F)(F)F)nn12 (centres unmarked) [Example 0380] |
| 2.72 | – | – | O=C(O)/C=C/c1c(-c2sccc2Cl)nc2sc(C(F)(F)F)nn12 [VA126] |
| 2.62 | – | – | NC(=O)/C=C/c1c(-c2ccc(Cl)cc2)nc2sc(C(F)(F)F)nn12 [Example 0004] |
| 3.25 | – | – | CCNC(=O)/C=C/c1c(-c2ccc(Cl)cc2)nc2sc(C(F)(F)F)nn12 [Example 0006] |
| – | 3.81 | – | CC(ONC(=O)/C=C/c1c(-c2ccc(F)cc2)nc2sc(C(F)(F)F)nn12)c1ccccc1 (centres unmarked) [Example 0355] |
| 2.42 | – | – | O=C(O)/C=C/c1c(-c2ccc(Cl)nc2)nc2sc(C(F)(F)F)nn12 [VA125] |
| 3.72 | – | – | CC(C)(C)NC(=O)/C=C/c1c(-c2ccccc2Cl)nc2sc(C(F)(F)F)nn12 [Example 0150] |
| – | – | 3.14 | CCC(C)NC(=O)/C=C/c1c(-c2ccc(OC)c(OC)c2)nc2sc(C(F)(F)F)nn12 (centres unmarked) [Example 0661] |
| – | 3.26 | – | Cc1ccccc1-c1nc2sc(C(F)(F)F)nn2c1/C=C/C(=O)NOCC1CC1 [Example 0282] |
| – | 3.94 | – | O=C(/C=C/c1c(-c2cccc(C(F)(F)F)c2)nc2sc(C(F)(F)F)nn12)NCC1CC1 [Example 0379] |
| – | 4.32 | – | CCC(CC)NC(=O)/C=C/c1c(-c2ccc(Cl)cc2Cl)nc2sc(C(F)(F)F)nn12 [Example 0567] |
| – | – | 4.10 | C[Si](C)(C)CNC(=O)/C=C/c1c(-c2ccc(F)cc2Cl)nc2sc(C(F)(F)F)nn12 [Example 0914] |
| 2.8 | – | – | CC(NC(=O)/C=C/c1c(-c2cccc(Cl)c2)nc2sc(C(F)(F)F)nn12)c1cccnc1 (centres unmarked) [Example 0124] |
| – | 4.23 | – | CC(ONC(=O)/C=C/c1c(-c2ccc(Cl)cc2Cl)nc2sc(C(F)(F)F)nn12)c1ccccc1 (centres unmarked) [Example 0565] |
| – | 3.9 | – | CC(NC(=O)/C=C/c1c(-c2ccc(F)cc2)nc2sc(C(F)(F)F)nn12)c1ccccc1 (centres unmarked) [Example 0331] |
| – | 3.99 | – | O=C(/C=C/c1c(-c2ccc(F)cc2)nc2sc(C(F)(F)F)nn12)NC1CCCCC1 [Example 0307] |
| 4.32 | – | – | CC(C)C(C)NC(=O)/C=C/c1c(-c2cccc(Cl)c2)nc2sc(C(F)(F)F)nn12 (centres unmarked) [Example 0094] |
| – | 3.41 | – | O=C(/C=C/c1c(-c2ccc(F)cc2)nc2sc(C(F)(F)F)nn12)NC1CCC1 [Example 0305] |
| – | 3.46 | – | CN(C)C(=O)/C=C/c1c(-c2ccc(Cl)cc2Cl)nc2sc(C(F)(F)F)nn12 [Example 0568] |
| 4.32 | – | – | CC(NC(=O)/C=C/c1c(-c2ccc(Cl)cc2)nc2sc(C(F)(F)F)nn12)c1ccccc1 (centres unmarked) [Example 0038] |
| – | 3.85 | – | O=C(/C=C/c1c(-c2ccc(F)cc2)nc2sc(C(F)(F)F)nn12)N1CCCCC1 [Example 0364] |
| 4.63 | – | – | O=Cc1c(-c2ccc(-c3ccc(Cl)cc3)cc2)nc2sc(C(F)(F)F)nn12 [IVA119] |
| 4.32 | – | – | CCCC(C)NC(=O)/C=C/c1c(-c2ccc(Cl)cc2)nc2sc(C(F)(F)F)nn12 (centres unmarked) [Example 0017] |
| – | 4.56 | – | CC(COc1ccccc1)NC(=O)/C=C/c1c(-c2ccc(Cl)cc2Cl)nc2sc(C(F)(F)F)nn12 (centres unmarked) [Example 0546] |
| – | – | 3.75 | O=C(/C=C/c1c(-c2ccc(F)cc2Cl)nc2sc(C(F)(F)F)nn12)NCCCC(F)(F)F [Example 0912] |
| – | – | 3.32 | CC(NC(=O)/C=C/c1c(-c2ccc(Cl)nc2)nc2sc(C(F)(F)F)nn12)C(F)(F)F (racemic) [Example 0935] |
| 4.56 | – | – | CC(COc1ccccc1)NC(=O)/C=C/c1c(-c2cccc(Cl)c2)nc2sc(C(F)(F)F)nn12 (centres unmarked) [Example 0113] |

same assay, conditions: HPLC gradient method, acetonitrile/0.1% strength aqueous phosphoric acid or formic acid; preparation examples; read-out: log P

| chromatographic logP | Structure (SMILES) |
| --- | --- |
| 3.03 | C[C@@H](CS(C)(=O)=O)NC(=O)/C=C/c1c(-c2ccc(Cl)cc2Cl)nc2sc(C(F)(F)F)nn12 [Example 0003, (2E)-3-[6-(2,4-Dichlorophenyl)-2-(trifluoromethyl)imidazo[2,1-b][1,3,4]thiadiazol-5-yl]-N-[(1S)-1-methyl-2-(methylsulphonyl)ethyl]acrylamide] |
